The term EC50 denotes the midpoint of the concentration-response curve.

The test deals with T1, GPCR GPR40 (Rattus norvegicus, UniProt Q8K3T4).
T1 construct: expressed in transfected cells; host or cells: HEK293
T1 sequence (Q8K3T4 whole entry): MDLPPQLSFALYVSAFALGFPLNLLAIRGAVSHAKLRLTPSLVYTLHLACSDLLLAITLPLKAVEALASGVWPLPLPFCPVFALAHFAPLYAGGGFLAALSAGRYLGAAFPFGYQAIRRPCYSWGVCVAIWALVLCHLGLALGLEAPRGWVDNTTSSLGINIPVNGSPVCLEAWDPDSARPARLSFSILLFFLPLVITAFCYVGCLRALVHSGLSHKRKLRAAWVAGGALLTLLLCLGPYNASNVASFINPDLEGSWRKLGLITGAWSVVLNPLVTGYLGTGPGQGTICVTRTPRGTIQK
The experiment in a line: In vitro FLIPR assay with recombinant cells which express the GPCR GPR40. Particulars: recombinant HEK293 cells expressing rat GPR40; agonist-induced change in intracellular Ca2+ (Fluo-4, FLIPR); 100% = 10 μM linoleic acid. The format is cell-based. The method, then: In Vitro FLIPR Assay with Recombinant Cells which Express the GPCR GPR40
Function-testing assays were performed by means of the FLIPR technique (“Fluorescence Imaging Plate Reader”, Molecular Devices Corp.). To this end, agonist-induced changes in the intracellular concentration of Ca^2+ were determined in recombinant HEK293 cells which expressed the GPCR GPR40 (species: rat). For the studies, cells were sown into 96-well microtiter plates (60 000 cells/well) and left to grow overnight. The medium was removed and the cells were incubated in buffer which contained the fluorescent dye Fluo-4. After this loading with dye, the cells were washed, test substance was added and changes in the intracellular Ca^2+ concentration were measured in the FLIPR unit. Results were presented as the percentage change relative to the control (0%: no test substance added; 100%: 10 μM reference agonist linoleic acid added) and used to calculate dose/effect curves, and EC50 values were determined.
`CC#CC(CC(=O)O)c1ccc(OCC(CC)COc2ccc(C(F)(F)F)cc2)cc1` (stereo not drawn) [Example 42, 3-{4-[2-(4-Trifluoromethylphenoxymethyl)butoxy]phenyl}hex-4-ynoic acid]: the EC50 was determined as 1.78 µM.
Turning to `CC#CC(CC(=O)O)c1ccc(OCC(CC)COc2cccc(C(C)(C)C)c2)cc1` (stereo not drawn) [Example 43, 3-{4-[2-(3-tert-Butylphenoxymethyl)butoxy]phenyl}hex-4-ynoic acid], the EC50 amounted to 2.03 µM.
Regarding `CC#CC(CC(=O)O)c1ccc(OCC(CCC)COc2ccc(C(F)(F)F)cc2)cc1` (stereo not drawn) [Example 44, 3-{4-[2-(4-Trifluoromethylphenoxymethyl)pentyloxy]phenyl}hex-4-ynoic acid], the EC50 worked out at 5.1 µM.
For `CC#CC(CC(=O)O)c1ccc(OCC(CCC)COc2cccc(C(C)(C)C)c2)cc1` (stereo not drawn) [Example 45, 3-{4-[2-(3-tert-Butylphenoxymethyl)pentyloxy]phenyl}hex-4-ynoic acid], the EC50 amounted to 6.85 µM.
Regarding `CC#CC(CC(=O)O)c1ccc(OCC(COc2ccc(C(F)(F)F)cc2)c2ccccc2)cc1` (stereo not drawn) [Example 46, 3-{4-[2-Phenyl-3-(4-trifluoromethylphenoxy)propoxy]phenyl}hex-4-ynoic acid], the EC50 came to 8.49 µM.
To `CC#CC(CC(=O)O)c1ccc(OCC(COc2cccc(C(C)(C)C)c2)c2ccccc2)cc1` (stereo not drawn) [Example 47, 3-{4-[3-(3-tert-Butylphenoxy)-2-phenylpropoxy]phenyl}hex-4-ynoic acid] belongs 8.74 µM; to `CC#CC(CC(=O)O)c1ccc(OCC(COc2ccc(C(F)(F)F)cc2Cl)OCc2ccccc2)cc1` (stereo not drawn) [Example 48, 3-{4-[2-Benzyloxy-3-(2-chloro-4-trifluoromethylphenoxy)propoxy]phenyl}hex-4-ynoic acid], 7.5 µM.
For `CC#CC(CC(=O)O)c1ccc(OCC(CO)COc2ccc(C#N)c(Cl)c2)cc1` (stereo not drawn) [Example 49, 3-{4-[3-(3-Chloro-4-cyanophenoxy)-2-hydroxymethylpropoxy]phenyl}hex-4-ynoic acid], the EC50 is 0.15 µM.
To `CC#CC(CC(=O)O)c1ccc(OCC(COC)COc2ccc(C#N)c(Cl)c2)cc1` (stereo not drawn) [Example 50, 3-{4-[3-(3-Chloro-4-cyanophenoxy)-2-methoxymethylpropoxy]phenyl}hex-4-ynoic acid] belongs 0.55 µM; to `CC#CC(CC(=O)O)c1ccc(OCC(COCC2CC2)COc2ccc(C#N)c(Cl)c2)cc1` (stereo not drawn) [Example 51, 3-{4-[3-(3-Chloro-4-cyanophenoxy)-2-cyclopropylmethoxymethylpropoxy]phenyl}hex-4-ynoic acid], 2.4 µM; to `CC#CC(CC(=O)O)c1ccc(OCC(O)COc2ccc(C(F)(F)F)cc2Cl)cc1` (stereo not drawn) [Example 52, 3-{4-[3-(2-Chloro-4-trifluoromethylphenoxy)-2-hydroxypropoxy]phenyl}hex-4-ynoic acid], 0.99 µM.
To `CC#CC(CC(=O)O)c1ccc(OCC(COc2ccc(C(F)(F)F)cc2Cl)OC)cc1` (stereo not drawn) [Example 53, 3-{4-[3-(2-chloro-4-trifluoromethylphenoxy)-2-methoxypropoxy]phenyl}hex-4-ynoic acid] belongs 0.2 µM.

For the origin of these results see patent US20120004166A1, “ARYLOXYALKYLENE-SUBSTITUTED HYDROXYPHENYLHEXYNOIC ACIDS, PROCESS FOR PREPARATION THEREOF AND USE THEREOF AS A MEDICAMENT” (SANOFI, priority 2010, published 2012).
